{"source": "patent US20210140962A1", "about": "“COMPOUND AND METHOD OF MEASURING INTESTINAL PERMEABILITY AND LEAKY GUT” (priority 2017, published 2021)", "key": {"intestinal permeability": {"test_system": "intestinal permeability", "settings": "rodent model with gradual deterioration of insulin sensitivity and eventual onset of diabetes; oral gavage; change over time (FIG. 5)", "protocol": "100 μg of non-radioactive Cr-EDTA in aqueous solution was administered to C57BL/6 mice and Wistar rats by oral gavage. A urine sample from the animals was then collected 6-10 hours after administration.\nThe urine sample taken from the animal was incubated with strongly acidic cation exchange resin wherein the active group is nuclear sulfonic acid, e.g., 33% by volume slurry of DOWEX-50-H+® cation exchange resin equilibrated with distilled water at room temperature.\nNaturally occurring background Cr ions in the urine were correspondingly bound to the resin. […] The samples were then centrifuged, with the supernatant containing the fraction of administered Cr-EDTA that crossed the intestinal barrier.\nThe supernatant was injected directly into a Gas Furnace Atomic Absorption Spectroscope (GFAAS) using a graphite tube. The GFAAS apparatus had been calibrated to yield the concentration of Cr in each sample."}, "[1]": {"settings": "aqueous solution about 2.5 mM; comprised of materials verified as being non-toxic by the FDA; cited from earlier work"}}}
{"molecule": "O=C(O)CN(CCN(CC(=O)O)CC(=O)O)CC(=O)O.[Cr]", "note": "[Cr-EDTA, chromium EDTA complex]", "values": [{"measurement": "ratio of Cr to creatinine in urine samples", "setting": "intestinal permeability", "result": "measurable increase"}, {"measurement": "toxicity", "setting": "[1]", "result": "non-toxic"}]}
